# Source: patent publication US11434222B2, “MAGL inhibitors” (H. LUNDBECK A/S, priority 2020, dated 2022)
# Where two headings read alike, the source gives them in different places.
# Experiments:
# [1] = In vitro human hepatocyte stability; type: in vitro ADME; conditions: cryopreserved human hepatocytes (pooled donor), human hepatocytes 0.5×10^6 cells/mL, read-out: Scaled-up unbound CLint
# Description: The metabolic stability of test articles (1 μM) in commercially sourced, pooled donor, cryopreserved human hepatocytes (0.5×10^6 cells/mL) was determined in duplicate. The CLint reactions (250 μL) were initiated by addition of test compound. Aliquots (25 μL) were taken at 0, 15, 30, 45, 60, 90, 120 and 240 minutes and then protein crashed with ice-cold acetonitrile containing internal standard then centrifuged (3220 g for 25 minutes). Supernatant was used for LC-MS/MS analysis. The in vitro half-life (in vitro t1/2) was determined from the slope value: in vitro t1/2=−0.693/k. Conversion of the in vitro t1/2 (in min) into the scale-up unbound intrinsic clearance (Scaled-up unbound CLint, in mL/min/kg) was done using the following equation (mean of duplicate determinations), with data shown in Table 5: Scaled-up unbound CLint=kV/N×scaling factor. V=incubation volume (0.25 mL); N=number of hepatocytes per well ([…]). Scaling factors for in vivo intrinsic clearance prediction are listed below: […]
# [2] = Kinetic solubility in PBS; type: physicochemical; conditions: aqueous buffer, kinetic from dmso stock
# Description: The kinetic solubility of test articles was determined in PBS at pH 2.0 and pH 7.4 in duplicate. A stock solution of test compound in DMSO (10 mM) was incubated at RT for 2 hours with shaking at 1,100 RPM. The sample was then filtered using a vacuum manifold, diluted, and analyzed by LC-MS/MS. Chromatographic conditions: Phenomenex Synergi 4μ Hydro-PR 80A column (2.0×30 mm) coupled with pre-guard column; mobile phase=0.1% formic acid in acetonitrile and 0.1% formic acid in water; flowrate=0.65 mL/min; column temperature=40° C.; injection volume: 3 μL.
# (§1) Mass conditions: Turbo spray ion source; ESI ionization model; MRM scan type; Collison gas=6 L/min; Curtain gas=30 L/min; Nebulize gas=50 L/min; Auxiliary gas=50 L/min; Temperature=500 degrees C.; Ion spray voltage=+5500 v (positive MRM).
# (§2) The filtered solution was analyzed and quantified against a standard of known concentration in DMSO using UPLC coupled with mass spectral peak identification and quantitation. Solubility values of the test articles were calculated using Microsoft Excel as follows (DF is the dilution factor): […]
# [3] = Free fraction in rat plasma and brain homogenate by equilibrium dialysis; type: in vitro ADME
# Description: (§3) Brain disposition was evaluated in male Sprague-Dawley rats (n=3, standard body weight). Briefly, test compound was formulated as a simple suspension, in 0.5% HPMC in water, then administered by oral gavage (5 mg/kg, 5 mL/kg). Four hours post dosing, rats were sacrificed, and terminal blood and brain samples were taken. Blood was obtained via cardiac puncture (0.1 mL) and was added into 0.4 mL CH3CN for precipitation immediately. The samples were stored at −75+/−15° C. prior to analysis. Brain tissue samples were collected after animals were fully exsanguinated, and the tissues were washed with cold saline quickly. After sectioning, brain sections were immediately frozen in liquid nitrogen and stored at −75+/−15° C. prior to analysis. Blood and brain samples were analyzed by LC/MS/MS using an optimized analytical method. Concentrations of test compound in blood and brain were quantified against matrix matched calibration standards. The total blood, plasma, and brain concentration data are presented in Table 2 alongside the calculated brain Kp (total brain concentration:total plasma concentration ratio), the calculated brain kp,uu (unbound brain concentration:unbound plasma concentration ratio), the free fractions in rat plasma and brain, and the in vitro rat blood to plasma distribution profile. The total plasma concentration data were calculated from the total blood concentration data using rat blood to plasma ratio which was measured in vitro (1 μM test compound). For kp,uu determination, the free fraction in rat plasma and brain homogenate were measured in vitro by standard equilibrium dialysis (1 μM test compound and 6 h equilibration against buffer pH 7.4; for rat plasma analysis, 100 mM stock solution of diisopropyl fluorophosphate was added to the pre-warmed rat plasma prior to adding test article).
# [4] = In vitro rat blood to plasma ratio; type: in vitro ADME; conditions: 1 μM test compound
# Description: as §3
# [5] = Thermodynamic solubility in PBS; type: physicochemical; conditions: aqueous buffer, thermodynamic from solid; PBS pH 7.4; 24 hours at RT
# Description: The thermodynamic solubility of test article was determined in PBS at pH 7.4 in duplicate. The test article (1.5 mg) in PBS was incubated for 24 hours at RT with shaking at 1100 rpm. Sample was then filtered using a vacuum manifold, diluted, and analyzed by LC-MS/MS. Chromatographic conditions: Phenomenex Synergi 4μ Hydro-PR 80A column (2.0×30 mm) coupled with pre-guard column; mobile phase=0.1% formic acid in acetonitrile and 0.1% formic acid in water; flowrate=0.65 mL/min; column temperature=40 degrees C.; injection volume: 10 μL.
# Mobile phase: 0.1% formic acid in acetonitrile (A) and 0.1% formic acid in water (B)
# as §1, §2
# [6] = Rat Kp, brain disposition after oral gavage; type: in vivo
# Description: as §3
# MAGL [7] = target: T1, MAGL (Mus musculus, UniProt O35678); assay: In vivo MAGL inhibition in mouse brain proteomes after oral gavage; conditions: 5 mg/kg oral gavage, 4 h after administration, read-out: MAGL % inh. 5 mg/kg (mouse)
# T1 construct: brain proteomes were prepared and analyzed according to previously established methods; from tissue; host or cells: brain of wild-type C57Bl/6J mice
# T1 sequence (O35678 1-303): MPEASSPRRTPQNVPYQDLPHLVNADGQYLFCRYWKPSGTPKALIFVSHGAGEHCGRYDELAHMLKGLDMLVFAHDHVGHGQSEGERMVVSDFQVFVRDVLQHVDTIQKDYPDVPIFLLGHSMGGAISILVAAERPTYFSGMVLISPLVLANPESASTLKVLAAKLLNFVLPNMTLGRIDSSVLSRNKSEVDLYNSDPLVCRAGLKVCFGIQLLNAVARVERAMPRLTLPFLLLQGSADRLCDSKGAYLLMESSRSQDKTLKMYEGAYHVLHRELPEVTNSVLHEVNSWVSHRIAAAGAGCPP
# Description: Inhibitors were administered to wild-type C57B1/6J by oral gavage in a vehicle of polyethylene glycol. Each animal was sacrificed 4 h following administration and brain proteomes were prepared and analyzed according to previously established methods (See Niphakis, M. J., et al. (2011) ACS Chem. Neurosci. and Long, J. Z., et al. Nat. Chem. Biol. 5:37-44).
# MAGL [8] = target: T2, MAGL (Homo sapiens, UniProt Q99685); assay: In vitro competitive activity-based protein profiling (PC3 human cell membrane proteomes); type: biochemical
# T2 construct: PC3 human cell membrane proteomes; endogenous in cells; host or cells: PC3 human cells (membrane proteome)
# T2 sequence (Q99685 1-303): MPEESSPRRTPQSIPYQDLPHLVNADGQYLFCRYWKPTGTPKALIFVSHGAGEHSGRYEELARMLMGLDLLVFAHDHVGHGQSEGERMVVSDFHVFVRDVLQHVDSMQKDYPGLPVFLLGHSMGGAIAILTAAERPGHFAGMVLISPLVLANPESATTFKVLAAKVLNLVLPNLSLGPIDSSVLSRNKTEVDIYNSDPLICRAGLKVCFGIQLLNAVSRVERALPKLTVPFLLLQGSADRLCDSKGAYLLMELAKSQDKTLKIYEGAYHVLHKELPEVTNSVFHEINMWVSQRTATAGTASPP
# Description: PC3 human cell membrane proteomes (50 µL, 2.0 mg/mL total protein concentration) were preincubated with varying concentrations of inhibitors at 37° C. After 30 min, the ABPP probe JW912-Bodipy (1.0 µL, 50 µM in DMSO) was added and the mixture was incubated for 30 min at room temperature. Reactions were quenched with SDS loading buffer (15 μL-4×) and run on SDS-PAGE. Following gel imaging, serine hydrolase activity was determined by measuring fluorescent intensity of gel bands corresponding to MAGL using ImageJ 1.43u software. Intensities were converted to percent enzyme activity by normalizing to DMSO controls. IC50 values were determined by fitting percent enzyme activities to a non-linear regression, 4-parameter, sigmoidal dose response function in Prism GraphPad.
# [9] = PBS pH 2.0, RT, read-out: pH 2 Solubility (kinetic)
# [10] = PBS pH 7.4, RT, read-out: pH 7.4 Solubility (kinetic)
# [11] = 5 mg/kg oral gavage, 4 h post dosing, mean n = 3
Structure (SMILES),CLint scaled at 1 μM [1],"solubility kinetic at 2 h [2, 9]","solubility kinetic at 2 h [2, 10]",inhibition at 5 mg/kg (MAGL [7]),also measured
"O=C(Nc1cccnc1)[C@H]1CC12CCN(C(=O)OC(C(F)(F)F)C(F)(F)F)CC2 (single isomer, unassigned) [Example 2]",34.8 mL/min/kg,30.3 µM,189 µM,100%,"fraction unbound at 6 h, 1 μM ([3]; rat brain homogenate, buffer pH 7.4, read-out: Rat brain free fraction): 0.024; fraction unbound at 6 h, 1 μM ([3]; rat plasma, buffer pH 7.4, read-out: Rat plasma free fraction): 0.078; blood plasma ratio at 1 μM [4]: 0.833; solubility thermodynamic at 24 h [5]: 91.8 µg/mL; Total plasma concentration ([6]; 5 mg/kg oral gavage, 4 h, calculated from total blood concentration using blood to plasma ratio): 0.066 µM; Total blood concentration [6, 11]: 0.049 µM; Total brain concentration [6, 11]: 0.199 µM; Kp at 4 h ([6]; male, Sprague-Dawley, po, total brain concentration:total plasma concentration ratio, 5 mg/kg p.o., 4 h): 3.01; Kp uu at 4 h ([6]; male, Sprague-Dawley, po, unbound brain concentration:unbound plasma concentration ratio, 5 mg/kg p.o., 4 h): 0.925"
"O=C(Nc1ccncc1)C1CC12CCN(C(=O)OC(C(F)(F)F)C(F)(F)F)CC2 (single isomer, unassigned) [Example 24, 1,1,1,3,3,3-hexafluoropropan-2-yl (R or S)-1-(pyridin-4-ylcarbamoyl)-6-azaspiro[2.5]octane-6-carboxylate]",11.9 mL/min/kg,–,197 µM,90%,–
"Cn1ccc(NC(=O)C2CC23CCN(C(=O)OC(C(F)(F)F)C(F)(F)F)CC3)n1 (single isomer, unassigned) [Example 127, 1,1,1,3,3,3-hexafluoropropan-2-yl (R or S)-1-((1-methyl-1H-pyrazol-3-yl)carbamoyl)-6-azaspiro[2.5]octane-6-carboxylate]",9.51 mL/min/kg,275 µM,292 µM,75%,–
"O=C(Nc1cncc(F)c1)C1CC12CCN(C(=O)OC(C(F)(F)F)C(F)(F)F)CC2 (single isomer, unassigned) [Example 40, 1,1,1,3,3,3-hexafluoropropan-2-yl (R or S)-1-((5-fluoropyridin-3-yl)carbamoyl)-6-azaspiro[2.5]octane-6-carboxylate]",43.2 mL/min/kg,163 µM,100 µM,100%,MAGL % inh. 1 µM (human PC3) (MAGL [8]): 100%
"O=C(NCC1CCOCC1)[C@H]1CC12CCN(C(=O)OC(C(F)(F)F)C(F)(F)F)CC2 (single isomer, unassigned) [Example 117]",20.6 mL/min/kg,–,251 µM,100%,–
"O=C(Nc1cncs1)C1CC12CCN(C(=O)OC(C(F)(F)F)C(F)(F)F)CC2 (single isomer, unassigned) [Example 129, 1,1,1,3,3,3-hexafluoropropan-2-yl (R or S)-1-(thiazol-5-ylcarbamoyl)-6-azaspiro[2.5]octane-6-carboxylate]",53.6 mL/min/kg,–,–,50%,–
"CC1(NC(=O)C2CC23CCN(C(=O)OC(C(F)(F)F)C(F)(F)F)CC3)CCOCC1 (single isomer, unassigned) [Example 132, 1,1,1,3,3,3-hexafluoropropan-2-yl (R or S)-1-((4-methyltetrahydro-2H-pyran-4-yl)carbamoyl)-6-azaspiro[2.5]octane-6-carboxylate]",44.2 mL/min/kg,–,–,100%,–
"O=C(Nc1cncnc1)C1CC12CCN(C(=O)OC(C(F)(F)F)C(F)(F)F)CC2 (single isomer, unassigned) [Example 96, 1,1,1,3,3,3-hexafluoropropan-2-yl (R or S)-1-(pyrimidin-5-ylcarbamoyl)-6-azaspiro[2.5]octane-6-carboxylate]",17.1 mL/min/kg,–,237 µM,100%,–
"Cc1cnc(NC(=O)C2CC23CCN(C(=O)OC(C(F)(F)F)C(F)(F)F)CC3)cn1 (single isomer, unassigned) [Example 112, 1,1,1,3,3,3-hexafluoropropan-2-yl (R or S)-1-((5-methylpyrazin-2-yl)carbamoyl)-6-azaspiro[2.5]octane-6-carboxylate]",9.59 mL/min/kg,185 µM,109 µM,75%,–
"CP(C)(=O)c1ccc(NC(=O)C2CC23CCN(C(=O)OC(C(F)(F)F)C(F)(F)F)CC3)cn1 (single isomer, unassigned) [Example 20, 1,1,1,3,3,3-hexafluoropropan-2-yl (R or S)-1-((6-(dimethylphosphoryl)pyridin-3-yl)carbamoyl)-6-azaspiro[2.5]octane-6-carboxylate]",0.85 mL/min/kg,–,310 µM,0%,–
